Among the data in patent publication US7169817B2, “Bis-aromatic alkanols” (IRM LLC, priority 2002, dated 2007) are EC50 values, retold here.

Holding throughout (assay): GTPγS binding assay using S1P receptor/HEK293 membrane preparations
Common to all, as to assay type: biochemical
Common to all, as to conditions: membranes of transiently transfected HEK293 cells
A general note: GTPγS is a poorly hydrolysed GTP analogue; its binding reports G protein activation.

One assay concerns the target T1, S1P4 (Homo sapiens, UniProt O95977).
T1 construct: expressed in transfected cells; host or cells: HEK293 (transient, calcium phosphate); crude membranes
T1 sequence (O95977 1-384): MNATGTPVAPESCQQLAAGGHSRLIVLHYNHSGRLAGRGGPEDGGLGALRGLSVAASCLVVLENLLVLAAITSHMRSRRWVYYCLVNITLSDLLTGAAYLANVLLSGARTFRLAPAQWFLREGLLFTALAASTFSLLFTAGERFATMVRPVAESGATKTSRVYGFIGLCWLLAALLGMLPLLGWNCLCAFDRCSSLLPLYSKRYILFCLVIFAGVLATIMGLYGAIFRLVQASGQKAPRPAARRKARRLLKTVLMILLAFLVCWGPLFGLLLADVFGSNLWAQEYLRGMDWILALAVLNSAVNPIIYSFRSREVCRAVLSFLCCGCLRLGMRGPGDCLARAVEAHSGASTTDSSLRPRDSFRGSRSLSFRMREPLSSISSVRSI
From the text:
(§1) A. In vitro: Binding Affinity of Compounds of Formula I to Individual Human S1P Receptors may be Determined in the Following Assays:
(§2) Transient Transfection of Human S1P Receptors into HEK293 Cells
(§3) EDG receptors and Gi proteins are cloned, and equal amounts of 4 cDNAs for the EDG receptor, Gi-α, Gi-β and Gi-γ are mixed and used to transfect monolayers of HEK293 cells using the calcium phosphate precipitate method (M. Wigler et al., Cell. 1977;11;223 and D S. Im et al., Mol. Pharmacol. 2000;57;753). Briefly, a DNA mixture containing 25 μg of DNA and 0.25 M CaCl is added to HEPES-buffered 2 mM Na2HPO4. Subconfluent monolayers of HEK293 cells are poisoned with […] chloroquine, and the DNA precipitate is then applied to the cells. After 4 hours, the monolayers are washed with phosphate-buffered saline and re-fed media (90% 1:1 Dulbecco's modified essential media (DMEM):F-12+10% fetal bovine serum). The cells are harvested 48–72 hours after addition of the DNA by scraping in HME buffer (in mM: 20 HEPES, 5 MgCl2, 1 EDTA, pH 7.4) containing 10% sucrose on ice, and disrupted using a Dounce homogenizer. After centrifugation at 800×g, the supernatant is diluted with HME without sucrose and centrifuged at 100,000×g for 1 hour. The resulting pellet is rehomogenized and centrifuged a second hour at 100,000×g. This crude membrane pellet is resuspended in HME with sucrose, aliquoted, and snap-frozen by immersion in liquid nitrogen. The membranes are stored at […] Protein concentration is determined spectroscopically by the Bradford protein assay.
(§4) GTPγS Binding Assay Using S1P Receptor/HEK293 Membrane Preparations
(§5) GTPγS binding experiments are performed as described by D S. Im et al., Mol. Pharmacol. 2000; 57:753. Ligand-mediated GTPγS binding to G-proteins is measured in GTP binding buffer (in mM: 50 HEPES, 100 NaCl, 10 MgCl2, pH 7.5) using 25 μg of a membrane preparation from transiently transfected HEK293 cells. Ligand is added to membranes in the presence of 10 μM GDP and 0.1 nM [^35S]GTPγS (1200 Ci/mmol) and incubated at 30° C. for 30 min. Bound GTPγS is separated from unbound using the Brandel harvester (Gaithersburg, Md.) and counted with a liquid scintillation counter.

A further assay addresses T2, S1P2 (Homo sapiens, UniProt O95136).
T2 construct: expressed in transfected cells; host or cells: HEK293 (transient, calcium phosphate); crude membranes
From the text: as §1, §2, §3, §4, §5

The target of another assay is T3, S1P5 (Homo sapiens, UniProt Q9H228).
T3 construct: expressed in transfected cells; host or cells: HEK293 (transient, calcium phosphate); crude membranes
From the text: as §1, §2, §3, §4, §5

The next assay concerns the target T4, S1P1 (Homo sapiens, UniProt P21453).
T4 construct: expressed in transfected cells; host or cells: HEK293 (transient, calcium phosphate); crude membranes
From the text: as §1, §2, §3, §4, §5

The target in a further assay is T5, S1P3 (Homo sapiens, UniProt Q99500).
T5 construct: expressed in transfected cells; host or cells: HEK293 (transient, calcium phosphate); crude membranes
From the text: as §1, §2, §3, §4, §5

pEC50: −log10 of the molar value. Where only a bound is given, the exact number is not on record here.

T4 sequence (P21453 whole entry): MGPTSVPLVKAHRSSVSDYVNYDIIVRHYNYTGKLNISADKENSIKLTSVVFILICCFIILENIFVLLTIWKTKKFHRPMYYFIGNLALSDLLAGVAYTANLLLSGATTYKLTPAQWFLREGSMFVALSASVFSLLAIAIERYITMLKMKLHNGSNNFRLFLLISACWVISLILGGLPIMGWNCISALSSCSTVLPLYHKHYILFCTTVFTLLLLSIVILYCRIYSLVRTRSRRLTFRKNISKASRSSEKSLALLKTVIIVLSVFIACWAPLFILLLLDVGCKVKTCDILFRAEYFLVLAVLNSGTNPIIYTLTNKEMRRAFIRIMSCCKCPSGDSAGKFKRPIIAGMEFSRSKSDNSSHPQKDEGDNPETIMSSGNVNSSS
T2 sequence (O95136 whole entry): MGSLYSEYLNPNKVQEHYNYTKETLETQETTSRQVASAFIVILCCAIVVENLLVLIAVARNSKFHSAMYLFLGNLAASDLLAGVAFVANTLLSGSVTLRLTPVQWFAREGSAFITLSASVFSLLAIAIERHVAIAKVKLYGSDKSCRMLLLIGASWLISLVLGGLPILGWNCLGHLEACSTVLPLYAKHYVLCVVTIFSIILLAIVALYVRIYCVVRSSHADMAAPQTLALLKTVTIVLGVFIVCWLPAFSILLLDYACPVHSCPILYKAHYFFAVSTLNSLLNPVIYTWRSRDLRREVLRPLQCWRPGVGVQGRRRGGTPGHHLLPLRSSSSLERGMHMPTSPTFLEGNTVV
T5 sequence (Q99500 whole entry): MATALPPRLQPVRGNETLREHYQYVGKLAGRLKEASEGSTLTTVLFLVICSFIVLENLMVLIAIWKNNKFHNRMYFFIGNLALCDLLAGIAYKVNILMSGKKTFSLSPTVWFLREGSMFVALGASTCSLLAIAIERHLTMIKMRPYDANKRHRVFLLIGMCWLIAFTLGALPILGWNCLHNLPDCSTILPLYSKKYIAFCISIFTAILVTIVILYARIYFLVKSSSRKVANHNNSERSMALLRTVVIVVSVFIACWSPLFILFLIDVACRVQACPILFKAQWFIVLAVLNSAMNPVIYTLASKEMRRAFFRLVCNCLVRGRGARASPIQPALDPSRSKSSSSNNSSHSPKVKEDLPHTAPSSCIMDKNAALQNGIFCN
T3 sequence (Q9H228 whole entry): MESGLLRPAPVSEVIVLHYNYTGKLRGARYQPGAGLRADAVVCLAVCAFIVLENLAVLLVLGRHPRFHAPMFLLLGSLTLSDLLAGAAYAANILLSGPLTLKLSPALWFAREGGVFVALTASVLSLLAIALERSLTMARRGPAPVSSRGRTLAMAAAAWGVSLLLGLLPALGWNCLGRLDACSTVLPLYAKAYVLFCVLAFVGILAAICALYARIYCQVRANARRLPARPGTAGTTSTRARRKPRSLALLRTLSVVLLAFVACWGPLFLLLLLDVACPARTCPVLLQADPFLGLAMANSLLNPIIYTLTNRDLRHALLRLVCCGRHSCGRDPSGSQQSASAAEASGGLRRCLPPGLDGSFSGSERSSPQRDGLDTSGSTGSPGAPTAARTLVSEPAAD

By pEC50 is commonly meant the EC50 on a negative log10 scale, so that one unit is a factor of ten. Low readings indicate a large EC50, high ones a small EC50. As to `NC(CO)(CO)CCc1ccc(-c2ccc(OCc3ccc(F)c(F)c3)cc2)cc1` [Example 63], the negative-log EC50 (pEC50) on S1P4 is < 5.00; at S1P2, < 5.00; at S1P5, 10.00; at S1P1, 10.15; at S1P3, 8.72.
On to `CCCCCc1ccc(-c2ccc(CCC(N)(CO)CO)cc2)cc1` [Example 36], for which the pEC50 is 8.92 on S1P4; < 5.00 on S1P2; 8.96 at S1P5; 9.48 at S1P1; < 5.00 on S1P3.
Turning to `CCCc1cc(-c2ccc(-c3ccc(CCC(N)(CO)CO)cc3)cc2)no1` [Example 41], the negative-log EC50 (pEC50) at S1P4 was < 5.00; on S1P2, < 5.00; at S1P5, 8.68; at S1P1 it was 9.80; on S1P3 it was 7.27.
